This is an account of results in ChEMBL document CHEMBL1201862, “PubChem BioAssay data set” (2004).

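The compound was tested at five concentrations on cells cultured in 96-well plates, with a 48-hour exposure period. Here, GI50 denotes the concentration required for 50% inhibition of growth.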 Calls of active or inactive are those of the source. Rule as the data show it: active = GI50 up to about 1.1 µM and inactive = higher. Where a SMILES comes first, the peptide text is derived from it. [ ]: non-standard residue; d: D form. The star is where a group is joined. ξ: configuration not given here. ξNMe2Val = CC(C)C(C(=O)*)N(C)C; NMeV = CN[CH](C(=O)O)C(C)C; NHBn = c1ccc(CN*)cc1

Test systems include NCI/ADR-RES; COLO 205; HL-60; KM12; EKVX; U-251; CCRF-CEM; SR; SNB-19; OVCAR-4; NCI-H522; HCC 2998; HOP-92; NCI-H226; HCT-116; UACC-62; RPMI-8226; ACHN; MCF7; OVCAR-3.
What all share (experiment): inhibition of tumour cell growth, NCI panel, 48 h

`CC(C)C(NC(=O)C(C(C)C)N(C)C)C(=O)N(C)C(C(=O)N1CCCC1C(=O)N1CCCC1C(=O)NCc1ccccc1)C(C)C` (stereo not given) (ξNMe2Val-V[NMeV]PP-NHBn; configuration not given here): the GI50 in the assay on NCI/ADR-RES was 0.00179 µM (active); in the assay with COLO 205 it was < 0.0001 µM (active); in the assay with HL-60, < 0.0001 µM (active); in the assay on KM12, < 0.0001 µM (active); in the assay on EKVX, 0.0187 µM (active); in the assay on U-251, < 0.0001 µM (active). Besides, the GI50 was < 0.0001 µM (active) in the assay with CCRF-CEM; < 0.0001 µM (active) in the assay with SR; < 0.01 µM (active) in the assay on SNB-19; 15.7 µM (inactive) in the assay on OVCAR-4; < 0.01 µM (active) with NCI-H522; < 0.0001 µM (active) with HCC 2998. For the same compound, the GI50 in the assay with HOP-92, in the assay with NCI-H226, in the assay on HCT-116, in the assay with UACC-62, with RPMI-8226 and in the assay with ACHN was < 0.0001 µM (active) each time.

Turning to `CC(C)=CCC/C(C)=C/CO` [GERANIOL], the GI50 with NCI/ADR-RES, in the assay with COLO 205, in the assay with HL-60, with KM12, in the assay with EKVX and in the assay with U-251 was > 100 µM (inactive) throughout. Moreover, the GI50 in the assay on CCRF-CEM, in the assay with SNB-19, in the assay on OVCAR-4, in the assay on NCI-H522, with HCC 2998 and in the assay on MCF7 was > 100 µM (inactive) in each case. For the same compound, the GI50 in the assay on NCI-H226, in the assay with OVCAR-3, with HCT-116, in the assay with UACC-62, in the assay with RPMI-8226 and with ACHN was > 100 µM (inactive) throughout.

In the case of `COC(=O)c1ccccc1C1CN=NC12Cc1c(C)ccc(C)c1C2=O` (stereo not given), the GI50 in the assay on NCI/ADR-RES is > 100 µM (inactive); with COLO 205, > 100 µM (inactive); with HL-60, 37.6 µM (inactive); in the assay with KM12, > 100 µM (inactive); in the assay on EKVX, > 100 µM (inactive); in the assay on U-251 it was > 100 µM (inactive). In addition, the GI50 in the assay with CCRF-CEM was > 100 µM (inactive); in the assay with SNB-19, > 100 µM (inactive); with OVCAR-4, > 100 µM (inactive); in the assay on NCI-H522 it was > 100 µM (inactive); in the assay on HCC 2998, > 100 µM (inactive); in the assay on HOP-92, 23.3 µM (inactive). For the same compound, the GI50 with MCF7 was > 100 µM (inactive); in the assay with NCI-H226, > 100 µM (inactive); with OVCAR-3 it was > 100 µM (inactive); with HCT-116, 82.6 µM (inactive); in the assay with UACC-62 it was > 100 µM (inactive); in the assay on ACHN, > 100 µM (inactive).

With `Cc1ccc(S(=O)(=O)Oc2nc3nc4ccccc4nc3nc2OS(=O)(=O)c2ccc(C)cc2)cc1`, the GI50 in the assay on NCI/ADR-RES was > 100 µM (inactive); in the assay on COLO 205 it was > 100 µM (inactive); with HL-60 it was > 10 µM (inactive); in the assay on KM12 it was > 100 µM (inactive); with EKVX it was 13.6 µM (inactive); with U-251, > 100 µM (inactive). For the same compound, the GI50 in the assay with CCRF-CEM is 5.28 µM (inactive); with SNB-19, > 100 µM (inactive); in the assay on NCI-H522 it was > 100 µM (inactive); with HCC 2998 it was > 100 µM (inactive); with MCF7 it was > 100 µM (inactive); in the assay on NCI-H226, > 100 µM (inactive). Further, the GI50 with OVCAR-3, in the assay with HCT-116, in the assay on UACC-62, in the assay with RPMI-8226 and in the assay on ACHN was > 100 µM (inactive) throughout.

As for `COc1cc(/C=C/c2ccc(Br)cc2)cc(OC)c1OC`, the GI50 is 8.83 µM (inactive) in the assay with COLO 205; 3.74 µM (inactive) in the assay on HL-60; 8.11 µM (inactive) with KM12; 11.2 µM (inactive) with EKVX; 10.1 µM (inactive) in the assay on U-251; 11.8 µM (inactive) in the assay on CCRF-CEM. The GI50 is 16.1 µM (inactive) in the assay on SR; 21.1 µM (inactive) in the assay with SNB-19; 21.3 µM (inactive) in the assay with OVCAR-4; 11.8 µM (inactive) in the assay with NCI-H522; 7.6 µM (inactive) in the assay with HCC 2998; 12.1 µM (inactive) in the assay on HOP-92. The GI50 with NCI-H226 is 15.9 µM (inactive); in the assay on OVCAR-3, 7.8 µM (inactive); in the assay with HCT-116 it was 4.55 µM (inactive); in the assay with UACC-62 it was 8.02 µM (inactive); with RPMI-8226 it was 3.99 µM (inactive); in the assay on ACHN, 18.9 µM (inactive).

Consider `O=S(=O)(O)c1ccc2c(/N=N/c3cccc4ccccc34)c(O)ccc2c1`, for which the GI50 is > 100 µM (inactive) in the assay with NCI/ADR-RES; > 100 µM (inactive) in the assay with COLO 205; > 100 µM (inactive) with HL-60; > 100 µM (inactive) in the assay on KM12; > 100 µM (inactive) with EKVX; 87.1 µM (inactive) in the assay on U-251. For the same compound, the GI50 is > 100 µM (inactive) with CCRF-CEM; > 100 µM (inactive) with SR; 74.6 µM (inactive) in the assay on SNB-19; > 100 µM (inactive) in the assay on OVCAR-4; > 100 µM (inactive) in the assay with NCI-H522; > 100 µM (inactive) in the assay with HOP-92. Moreover, the GI50 in the assay with NCI-H226, in the assay with OVCAR-3, with HCT-116, in the assay with UACC-62, in the assay on RPMI-8226 and in the assay on ACHN was > 100 µM (inactive) each time.

`Clc1cccc(Cl)c1C1SCc2nc3cc4ccccc4cc3n21` (stereo not given): the GI50 in the assay with NCI/ADR-RES, in the assay on COLO 205, in the assay with KM12, in the assay with EKVX, with U-251 and in the assay with CCRF-CEM was > 100 µM (inactive) throughout. Besides, the GI50 with SNB-19, with OVCAR-4, in the assay on HCC 2998, in the assay with MCF7, with NCI-H226 and in the assay with OVCAR-3 was > 100 µM (inactive) throughout. Also, the GI50 in the assay on HCT-116, in the assay on UACC-62, in the assay on RPMI-8226 and with ACHN was > 100 µM (inactive) in each case.

As to `N#Cc1ccc(Oc2nc3ccccc3nc2C(=O)O)cc1`, the GI50 with NCI/ADR-RES, in the assay with COLO 205, with HL-60, with KM12, in the assay on EKVX and in the assay with U-251 was > 100 µM (inactive) each time. Moreover, the GI50 in the assay with CCRF-CEM, in the assay on SR, in the assay on SNB-19, in the assay on OVCAR-4, in the assay on NCI-H522 and with HCC 2998 was > 100 µM (inactive) in each case. For the same compound, the GI50 with HOP-92, with NCI-H226, with OVCAR-3, with HCT-116, with UACC-62 and with RPMI-8226 was > 100 µM (inactive) each time. The GI50 in the assay with ACHN was > 100 µM (inactive).

Turning to `COC(=O)c1ccccc1C1CN=NC12Cc1c(ccc(C)c1C)C2=O` (stereo not given), the GI50 is > 100 µM (inactive) with NCI/ADR-RES; > 100 µM (inactive) in the assay on COLO 205; > 100 µM (inactive) in the assay with HL-60; > 100 µM (inactive) in the assay on KM12; > 100 µM (inactive) in the assay with EKVX; 48.3 µM (inactive) in the assay with U-251. Moreover, the GI50 in the assay with CCRF-CEM was > 100 µM (inactive); with SNB-19, 85.9 µM (inactive); in the assay on OVCAR-4, 42.3 µM (inactive); in the assay with NCI-H522, > 100 µM (inactive); with HCC 2998, > 100 µM (inactive); in the assay with HOP-92, 21.3 µM (inactive). Moreover, the GI50 in the assay on MCF7 was > 100 µM (inactive); in the assay on NCI-H226, > 100 µM (inactive); in the assay with OVCAR-3, 45.7 µM (inactive); in the assay with HCT-116, > 100 µM (inactive); with UACC-62, > 100 µM (inactive); in the assay with ACHN, > 100 µM (inactive).

For the compound `CC(=O)Oc1cc(S(=O)(=O)Nc2n[nH]c(Nc3ccc(C)cc3)n2)c(S)cc1Cl`, the GI50 was > 100 µM (inactive) with NCI/ADR-RES; > 100 µM (inactive) in the assay on COLO 205; 45.7 µM (inactive) in the assay with HL-60; > 100 µM (inactive) in the assay on KM12; > 100 µM (inactive) in the assay with EKVX; > 100 µM (inactive) in the assay with U-251. For the same compound, the GI50 in the assay on CCRF-CEM is 94.8 µM (inactive); in the assay with SR, 66.7 µM (inactive); in the assay with SNB-19, > 100 µM (inactive); in the assay with OVCAR-4, > 100 µM (inactive); with NCI-H522, 92 µM (inactive); in the assay with HOP-92, > 100 µM (inactive). Further, the GI50 with OVCAR-3 was > 100 µM (inactive); in the assay with HCT-116, > 100 µM (inactive); with UACC-62 it was > 100 µM (inactive); with RPMI-8226, > 100 µM (inactive); in the assay with ACHN it was 54.8 µM (inactive).

For the compound `COC(=O)[C@@H]1CN(C(=O)CCc2ccccc2)C(=O)N1`, the GI50 in the assay with NCI/ADR-RES, in the assay with COLO 205, in the assay with HL-60, in the assay with KM12, with EKVX and in the assay on U-251 was > 100 µM (inactive) each time. Further, the GI50 in the assay with CCRF-CEM, in the assay with SR, in the assay on SNB-19, in the assay with OVCAR-4, in the assay on NCI-H522 and with HCC 2998 was > 100 µM (inactive) each time. In addition, the GI50 in the assay with HOP-92, in the assay on NCI-H226, with OVCAR-3, in the assay on HCT-116, with RPMI-8226 and in the assay on ACHN was > 100 µM (inactive) in each case.
